Laboratory results from patent US20240189255A1, “METHODS OF TREATMENT OF OSTEOARTHRITIS WITH TRANSDERMAL CANNABIDIOL GEL” (ZYNERBA PHARMACEUTICALS, INC., priority 2017, published 2024).

Assays:
[1] = system: patients with confirmed osteoarthritis of the knee; test: Double-blind, multi-center, placebo-controlled 12-week trial: worst knee pain score, WOMAC physical function, composite responders; type: in vivo, human; set-up: mean reduction from baseline in average worst knee pain scores / Worst Knee Pain Score: scale not given here
Description: (§1) Three hundred and twenty (320) patients aged 41 to 78 years of age with confirmed osteoarthritis of the knee were randomized in the double-blind, multi-center trial. Patients who completed the one-week washout and the seven-to-10-day baseline phase were randomized 1:1:1 to receive either 250 mg of CBD daily, 500 mg of CBD daily, or placebo, for 12 weeks. […] The 250 mg and 500 mg doses were administered as a 4.2% (wt/wt) CBD gel.
Across all participants, patients on 250 mg of CBD daily dosage achieved a 2.64 mean reduction from baseline in average worst knee pain scores at week 12; patients on 500 mg of CBD daily achieved a 2.83 mean reduction from baseline in average worst knee pain scores at week 12; and patients on placebo achieved a 2.37 mean reduction from baseline in average worst knee pain scores at week 12. […] A mixed-model repeated measures (MMRM) model was used to test for differences between active treatment groups and placebo based on all weekly average worst knee pain scores from Baseline to Week 12.
Over an initial 7 day period, patients were instructed to end use of other osteoarthritic treatment such as NSAID or COX-2 inhibitor, but were permitted to use acetaminophen for rescue use. At this time, baseline mean worst knee pain was identified for each patient. During the study, rescue use of acetaminophen was permitted for both active and placebo study groups, and there was no difference among the groups in prevalence of rescue use.
Fisher's Exact Test was used to test for differences in composite responders between each active treatment and placebo at LOCF. In the composite responder analysis, a positive response on the composite response analysis indicated a ≥30 percent reduction in worst average daily pain scores and a >20 percent improvement in WOMAC (Western Ontario & McMaster Universities Osteoarthritis Index) physical function score.
The study data was also analyzed with regard to the active dose per weight of the patient (i.e., dosage/weight in mg CBD/kg weight of patient). For this analysis, the patient population was divided into three groups: 0-25 percentile, 25-75 percentile, and 75-100 percentile, by dose/weight. Table 9 is a summary of composite responder analysis at last observation Dose/Weight Quartile 0-25%. Table 10 is a summary of composite responder analysis at last observation dose/weight quartile 25-75%. Table 11 is a summary of composite responder analysis at last observation dose/weight quartile 75-100%.

[2] = Pharmacokinetic data: plasma concentrations in the 12-week osteoarthritis trial; type: in vivo, human
Description: as §1

[3] = 250 mg CBD, efficacy patients, last observation, 93 assessed
[4] = 250 mg CBD, efficacy patients, last observation, 106 assessed
[5] = 500 mg CBD, efficacy patients, last observation, 91 assessed
[6] = 500 mg CBD, efficacy patients, last observation, 105 assessed
[7] = Dose/Weight Quartile 0-25%, 250 mg, last observation, 46 assessed, p=0.010

C=C(C)[C@@H]1CCC(C)=C[C@H]1c1c(O)cc(CCCCC)cc1O [CBD, 2-[3-methyl-6-(1-methylethenyl)-2-cyclohexen-1-yl]-5-pentyl-1,3-benzenediol]
20 Percent Responders in Physical Function WOMAC Score: No, number of patients [1, 3]: 33
20 Percent Responders in Physical Function WOMAC Score: No, percent of patients [1, 3]: (35.5) %
20 Percent Responders in Physical Function WOMAC Score: Yes, number of patients [1, 3]: 60
20 Percent Responders in Physical Function WOMAC Score: Yes, percent of patients [1, 3]: (64.5) %
Composite Responder: No, number of patients [1, 3]: 44
Composite Responder: No, percent of patients [1, 3]: (47.3) %
Composite Responder: Yes, number of patients ([1]; 250 mg CBD, efficacy patients, last observation, 93 assessed, p=0.016 vs placebo): 49
30 Percent Reduction in Diary Pain: No, number of patients [1, 4]: 53
30 Percent Reduction in Diary Pain: No, percent of patients [1, 4]: (50.0) %
30 Percent Reduction in Diary Pain: Yes, number of patients [1, 4]: 53
30 Percent Reduction in Diary Pain: Yes, percent of patients [1, 4]: (50.0) %
responder rate based on ≥30% reduction in worst pain severity ([1]; 250 mg of CBD daily, week 8, p=0.037): Statistically significant
20 Percent Responders in Physical Function WOMAC Score: No, number of patients [1, 5]: 37
20 Percent Responders in Physical Function WOMAC Score: No, percent of patients [1, 5]: (40.7) %
20 Percent Responders in Physical Function WOMAC Score: Yes, number of patients [1, 5]: 54
20 Percent Responders in Physical Function WOMAC Score: Yes, percent of patients [1, 5]: (59.3) %
Composite Responder: No, number of patients [1, 5]: 50
Composite Responder: No, percent of patients [1, 5]: (54.9) %
Composite Responder: Yes, number of patients ([1]; 500 mg CBD, efficacy patients, last observation, 91 assessed, p=0.169 vs placebo): 41
30 Percent Reduction in Diary Pain: No, number of patients [1, 6]: 54
30 Percent Reduction in Diary Pain: No, percent of patients [1, 6]: (51.4) %
30 Percent Reduction in Diary Pain: Yes, number of patients [1, 6]: 51
30 Percent Reduction in Diary Pain: Yes, percent of patients [1, 6]: (48.6) %
20 Percent Responders in Physical Function WOMAC Score: Yes, percent of patients ([1]; Dose/Weight Quartile 0-25%, 250 mg, last observation, 46 assessed): 69.6%
Composite Responders: Yes, number of patients [1, 7]: 27
Composite Responders: Yes, percent of patients [1, 7]: 58.7%
mean reduction from baseline in average worst knee pain scores ([1]; all participants, 250 mg CBD daily, week 12, placebo 2.37, not statistically significant): 2.64
mean reduction from baseline in average worst knee pain scores ([1]; all participants, 500 mg CBD daily, week 12, placebo 2.37, not statistically significant): 2.83
mean reduction from baseline in average worst knee pain scores ([1]; baseline pain score ≥7, both CBD dosage groups combined, week 4, placebo 1.6, p=0.029): 2.17
mean reduction from baseline in average worst knee pain scores ([1]; baseline pain score ≥7, both CBD dosage groups combined, week 8, placebo 2.22, p=0.054): 3.02
mean reduction from baseline in average worst knee pain scores ([1]; baseline pain score ≥7, both CBD dosage groups combined, week 12, placebo 2.52, p=0.086): 3.29
Composite Responders: Yes, percent of patients ([1]; dose/weight quartile 25-75%, 250 mg, last observation, 47 assessed, p=0.194): 46.8%
Composite Responders: Yes, percent of patients ([1]; dose/weight quartile 25-75%, 500 mg, last observation, 45 assessed, p=0.133): 48.9%
Composite Responders: Yes, percent of patients ([1]; dose/weight quartile 75-100%, 500 mg, last observation, 46 assessed, p=0.453): 41.3%
Composite Responders ([1]; male patients, 250 mg, LOCF, placebo 27%, p=0.003): 60%
Worst Knee Pain Score, % reduction ([1]; male patients, 250 mg, wk 4): 24%
Worst Knee Pain Score ([1]; male patients, 250 mg, wk 4, baseline 6.77, p=0.156): 5.05
Worst Knee Pain Score, % reduction ([1]; male patients, 250 mg, wk 8): 34%
Worst Knee Pain Score ([1]; male patients, 250 mg, wk 8, baseline 6.77, p=0.066): 4.47
Worst Knee Pain Score, % reduction ([1]; male patients, 250 mg, wk 12): 39%
Worst Knee Pain Score ([1]; male patients, 250 mg, wk 12, n=47, baseline 6.77, p=0.049): 4.16
Composite Responders ([1]; male patients, 500 mg, LOCF, placebo 27%, p=0.174): 41%
Worst Knee Pain Score, % reduction ([1]; male patients, 500 mg, wk 4): 22%
Worst Knee Pain Score ([1]; male patients, 500 mg, wk 4, baseline 6.85, p=0.323): 5.33
Worst Knee Pain Score, % reduction ([1]; male patients, 500 mg, wk 8): 30%
Worst Knee Pain Score ([1]; male patients, 500 mg, wk 8, baseline 6.85, p=0.474): 4.73
Worst Knee Pain Score, % reduction ([1]; male patients, 500 mg, wk 12): 33%
Worst Knee Pain Score ([1]; male patients, 500 mg, wk 12, n=38, baseline 6.85, p=0.193): 4.44
mean reduction from baseline in average worst knee pain scores ([1]; men, 250 mg of CBD daily, week 4, placebo 1.19, p=0.156): 1.65
mean reduction from baseline in average worst knee pain scores ([1]; men, 250 mg of CBD daily, week 8, placebo 1.56, p=0.066): 2.30
mean reduction from baseline in average worst knee pain scores ([1]; men, 250 mg of CBD daily, week 12, placebo 1.70, p=0.049): 2.68
pain reduction over placebo ([1]; patients having a baseline knee pain score less than 7, FIG. 10): not statistically significant
Composite Responders ([1]; patients with ≥7 mean baseline pain score, CBD groups combined, placebo 33%, p=0.083): 51%
Worst Knee Pain Score, % reduction ([1]; patients with ≥7 mean baseline pain score, CBD groups combined, wk4): 28%
Worst Knee Pain Score ([1]; patients with ≥7 mean baseline pain score, CBD groups combined, wk4, baseline 7.7, p=0.029): 5.45
Worst Knee Pain Score, % reduction ([1]; patients with ≥7 mean baseline pain score, CBD groups combined, wk8): 40%
Worst Knee Pain Score ([1]; patients with ≥7 mean baseline pain score, CBD groups combined, wk8, baseline 7.7, p=0.054): 4.61
Worst Knee Pain Score, % reduction ([1]; patients with ≥7 mean baseline pain score, CBD groups combined, wk12): 43%
Worst Knee Pain Score ([1]; patients with ≥7 mean baseline pain score, CBD groups combined, wk12, n=75, baseline 7.7, p=0.086): 4.34
Worst Knee Pain Score, % reduction ([1]; total patients, 250 mg, wk 4): 24%
Worst Knee Pain Score ([1]; total patients, 250 mg, wk 4, baseline 6.8, p=0.432): 5.09
Worst Knee Pain Score, % reduction ([1]; total patients, 250 mg, wk 8): 34%
Worst Knee Pain Score ([1]; total patients, 250 mg, wk 8, baseline 6.8, p=0.193): 4.43
Worst Knee Pain Score, % reduction ([1]; total patients, 250 mg, wk 12): 38%
Worst Knee Pain Score ([1]; total patients, 250 mg, wk 12, n=76, baseline 6.8, p=0.517): 4.23
Worst Knee Pain Score, % reduction ([1]; total patients, 500 mg, wk 4): 27%
Worst Knee Pain Score ([1]; total patients, 500 mg, wk 4, baseline 6.87, p=0.067): 4.96
Worst Knee Pain Score, % reduction ([1]; total patients, 500 mg, wk 8): 37%
Worst Knee Pain Score ([1]; total patients, 500 mg, wk 8, baseline 6.87, p=0.21): 4.27
Worst Knee Pain Score, % reduction ([1]; total patients, 500 mg, wk 12): 41%
Worst Knee Pain Score ([1]; total patients, 500 mg, wk 12, n=75, baseline 6.87, p=0.249): 3.99
dose media plasma concentrations, dose relationship ([2]; 500 mg and 250 mg daily CBD doses): dose proportional
plasma concentration of the 500 mg dose relative to the 250 mg dose ([2]; 500 mg vs 250 mg daily): approximately two times
